Results: patent publication US20260069581A1, “METHODS AND COMPOSITIONS FOR CANCER THERAPY” (OHIO STATE INNOVATION FOUNDATION, priority 2020, published 2026)

Columns and labels:
[1] = tested on: MOLM13 cells; assay: Western blotting of HR, NHEJ and ATM markers; format: cell-based, human
Experimental: Thereafter, cells were fixed, permeabilized and stained with BV421 mouse anti-H2A.X (pS139) (Clone N1-431). Stained cells were analyzed by flow cytometry. Results are shown as mean±SEM of duplicates. *p<0.05. N.S.: not significant. […] Results are shown as mean±SEM of duplicates. *p<0.05. […] MOLM13 cells were treated with vehicle control, 0.4 μM or 0.8 μM AR-42 alone, 0.1 μM or 0.25 μM KPT-2974 alone and drug combination for 24 hours before being subject to Western blotting analysis of HR, NHEJ and ATM markers. GAPDH served as loading control. Results are representative of two independent experiments. In the FIG. the treatment concentrations, protein detected in the given Western blot, and molecular weight of the protein detected are as shown in the figure. […] Scrambled or shHDAC8-transduced MOLM13 cells were treated with vehicle, 0.1 μM or 0.25 μM KPT-2974 before being subject to immunoblotting analysis of DNA repair targets. GAPDH serves as loading control. Results are representative of two independent experiments. In the FIG. the treatment concentrations, protein detected in the given Western blot, and molecular weight of the protein detected are as shown in the figure. […] PAPR1 was immunoprecipitated and mono-ADP-ribosylation was detected by western blotting. Results are representative of two independent experiments. […]

[2] = tested on: luciferase-tagged MOLM13 cells; assay: In vivo MOLM13 xenograft study, efficacy; details: MOLM13-engrafted NCG mice; KPT-9274 100 mg/kg daily, AR-42 20 mg/kg every another day, oral gavage
Experimental: NCG mice were engrafted with luciferase-tagged MOLM13 cells and treated with vehicle, 20 mg/kg AR-42, 100 mg/kg KPT-9274 and AR-42/KPT-9274 in combination.
Male NOD-Prkdc^em26cd52Il2rg^em26cd22/NjuCrl (NCG) mice (RRID:IMSR_CRL:572) (aged 6-8 weeks) were obtained from Charles River Laboratory. Mice were group-housed under conditions of constant photoperiod (12-hour light/12-hour dark), temperature, and humidity with adlibitum access to water and irradiated standard pelleted chow. 104 luciferase-tagged MOLM13 cells were injected via tail vein into NCG mice. On day 5 post-engraftment, mice were randomized to receive placebo (vehicle; Karyopharm Therapeutics) once daily, 100 mg/kg of KPT-9274 (Karyopharm Therapeutics) once daily, 20 mg/kg AR-42 every another day and the combination of KPT-9274 and AR-42 via oral gavage. Overall survival was the primary end point for the majority of the mice. A separate cohort of mice per group was used to monitor leukemic progression using IVIS imaging. Mice were monitored by animal technicians who were blinded to the treatment groups and determined when mice met early removal criteria (20% weight loss, lethargy, hunching, and poor body condition). Mice were euthanized by CO2 inhalation.
To determine the clinical relevance of the drug combination, the efficacy of co-treatment of AR-42 and KPT-9274 was tested in the MOLM13 xenograft model. […]

[3] = Phase I trial; cited from earlier work
[4] = tested on: HR activity in EJDR-reporter-stable U2OS cells; assay: EJDR reporter assay, HR-GFP; format: cell-based; details: ISceI-induced
Experimental: EJDR reporter assay. The EJDR assay was described previously (20). EJDR reporter cells were plated at 5×10^5 cells per well in 10% FBS and RPM11640. After drug treatments, cells were grown in 10% Tet-free FBS (100-800; Gemini) and RPM11640. Incorporated I-Sce1 was induced with Shield1 (632189; Clontech) and triamcinolone (TA) (T6510; Sigma Aldrich) ligands for 24 hours. NHEJ and HR repair activities were assessed 48 hours post induction by quantification of DsRed- and GFP-positive cells on Cytomics FC 500 Flow Cytometer (Beckman Coulter, Brea, CA).
It was unclear whether the potent ability of HDAC inhibitor to induce apoptosis of AML cells in combination with NAMPT inhibition was due to the loss of HR or NHEJ activity alone or both together. Accordingly, HR and NHEJ activities in AML cells exposed to these treatments were examined using the EJDR reporter system (FIG. 6B). EJDR-reporter-stable U2OS cells were treated with vehicle, single agents, or drug combination before being incubated with ligands, TA and Shield 1. […] The expression of D-NHEJ pathway factors, Ku70 and DNA-PKcs, and ATM pathway mediators, CHEK1 and CHEK2, were abolished by AR-42 and KPT-9274 co-treatment. […] Therefore, suppression of HDAC8 can attenuate HR and D-NHEJ gene expressions, resulting in NAMPT inhibitor sensitivity.

[5] = In vivo MOLM13 xenograft study, toxicities and weight; set-up: species or system NCG mice; details: over the course of the study (FIG. 11B)
Excerpt: FIG. 11A show H&E images of tissues obtained from MOLM13 xenograft mice that with the magnification and treatments as indicated in the figure. The images were representative of 3 different fields. […] FIG. 11B show weight change data of MOLM13 xenograft mice in response to different treatments.
In vivo MOLM13 xenograft study. All experiments were approved by the OSU Institutional Animal Care and Use Committee. Male NOD-Prkdc^em26cd52Il2rg^em26cd22/NjuCrl (NCG) mice (RRID:IMSR_CRL:572) (aged 6-8 weeks) were obtained from Charles River Laboratory. Mice were group-housed under conditions of constant photoperiod (12-hour light/12-hour dark), temperature, and humidity with adlibitum access to water and irradiated standard pelleted chow. […] luciferase-tagged MOLM13 cells were injected via tail vein into NCG mice. On day 5 post-engraftment, mice were randomized to receive placebo (vehicle; Karyopharm Therapeutics) once daily, 100 mg/kg of KPT-9274 (Karyopharm Therapeutics) once daily, 20 mg/kg AR-42 every another day and the combination of KPT-9274 and AR-42 via oral gavage. Overall survival was the primary end point for the majority of the mice. […] Mice were monitored by animal technicians who were blinded to the treatment groups and determined when mice met early removal criteria (20% weight loss, lethargy, hunching, and poor body condition). […]

Nc1ccc(/C=C/C(=O)NCc2cc3cc(-c4ccc(C(=O)N5CCC(F)(F)CC5)cc4)cc(-c4ccc(F)cc4)c3o2)cn1 [KPT-9274, (E)-3-(6-aminopyridin-3-yl)-N-[[5-[4-(4,4-difluoropiperidine-1-carbonyl)phenyl]-7-(4-fluorophenyl)-1-benzofuran-2-yl]methyl]prop-2-enamide]
abundance of D-NHEJ and ATM pathway mediators ([1]; shHDAC8-transduced MOLM13, 0.1 μM or 0.25 μM KPT-9274): synergistically downregulated | median survival time [2]: 27 days | drug-related adverse events [3]: anemia and fatigue | tolerability vs 1st generation NAMPTi [3]: better tolerated | HR activity (HR-GFP reporter) [4]: did not impact HR activity

CC(C)[C@H](C(=O)Nc1ccc(C(=O)NO)cc1)c1ccccc1 [AR-42, (S)—N-Hydroxy-4-(3-methyl-2-phenylbutanamido)benzamide]
levels of HR components CtIP, Rad51, phosphorylated BRCA1 and phosphorylated ATM ([1]; 0.4 μM and 0.8 μM AR-42, monotherapy or with KPT-9274, 24 hours): significantly reduced | weight loss [5]: did not observe any noticeable weight loss | median survival time [2]: 29 days | HR activity (HR-GFP reporter) [4]: nearly completely abolished
